US11572590B2, “Methods for evaluating tumor cell spheroids using 3D microfluidic cell culture device” (Dana-Farber Cancer Institute, Inc., priority 2017, dated 2023)
Like-named read-outs stand apart in the source and are kept apart here.

Columns and labels:
Assay in all cases: SelectScreen Kinase Profiling, single point inhibition and IC50 for off-target kinases
Type in all cases: biochemical
off-target kinases [1] = target: off-target kinases (Homo sapiens, UniProt P07947); conditions: YES1, ATP Km app, ZLYTE
Chain of off-target kinases (Homo sapiens, UniProt P07947) (P07947 whole entry): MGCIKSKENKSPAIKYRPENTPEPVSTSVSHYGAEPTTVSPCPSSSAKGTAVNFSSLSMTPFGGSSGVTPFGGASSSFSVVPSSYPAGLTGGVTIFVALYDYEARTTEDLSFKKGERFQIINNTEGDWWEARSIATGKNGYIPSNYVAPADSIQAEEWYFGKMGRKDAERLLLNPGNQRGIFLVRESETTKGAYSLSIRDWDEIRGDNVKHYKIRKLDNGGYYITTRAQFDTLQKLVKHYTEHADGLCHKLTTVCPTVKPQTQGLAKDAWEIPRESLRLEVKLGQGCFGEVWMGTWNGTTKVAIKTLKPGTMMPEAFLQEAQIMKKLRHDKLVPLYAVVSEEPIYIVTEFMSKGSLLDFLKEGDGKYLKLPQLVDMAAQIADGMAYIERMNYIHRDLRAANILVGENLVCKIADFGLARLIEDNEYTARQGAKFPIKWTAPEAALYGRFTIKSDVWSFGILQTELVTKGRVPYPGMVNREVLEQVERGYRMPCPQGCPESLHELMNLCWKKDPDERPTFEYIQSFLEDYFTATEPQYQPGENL

off-target kinases [2] = target: off-target kinases (Homo sapiens, UniProt P07949); conditions: RET, ATP Km app, ZLYTE
Chain of off-target kinases (Homo sapiens, UniProt P07949) (P07949 29-1114): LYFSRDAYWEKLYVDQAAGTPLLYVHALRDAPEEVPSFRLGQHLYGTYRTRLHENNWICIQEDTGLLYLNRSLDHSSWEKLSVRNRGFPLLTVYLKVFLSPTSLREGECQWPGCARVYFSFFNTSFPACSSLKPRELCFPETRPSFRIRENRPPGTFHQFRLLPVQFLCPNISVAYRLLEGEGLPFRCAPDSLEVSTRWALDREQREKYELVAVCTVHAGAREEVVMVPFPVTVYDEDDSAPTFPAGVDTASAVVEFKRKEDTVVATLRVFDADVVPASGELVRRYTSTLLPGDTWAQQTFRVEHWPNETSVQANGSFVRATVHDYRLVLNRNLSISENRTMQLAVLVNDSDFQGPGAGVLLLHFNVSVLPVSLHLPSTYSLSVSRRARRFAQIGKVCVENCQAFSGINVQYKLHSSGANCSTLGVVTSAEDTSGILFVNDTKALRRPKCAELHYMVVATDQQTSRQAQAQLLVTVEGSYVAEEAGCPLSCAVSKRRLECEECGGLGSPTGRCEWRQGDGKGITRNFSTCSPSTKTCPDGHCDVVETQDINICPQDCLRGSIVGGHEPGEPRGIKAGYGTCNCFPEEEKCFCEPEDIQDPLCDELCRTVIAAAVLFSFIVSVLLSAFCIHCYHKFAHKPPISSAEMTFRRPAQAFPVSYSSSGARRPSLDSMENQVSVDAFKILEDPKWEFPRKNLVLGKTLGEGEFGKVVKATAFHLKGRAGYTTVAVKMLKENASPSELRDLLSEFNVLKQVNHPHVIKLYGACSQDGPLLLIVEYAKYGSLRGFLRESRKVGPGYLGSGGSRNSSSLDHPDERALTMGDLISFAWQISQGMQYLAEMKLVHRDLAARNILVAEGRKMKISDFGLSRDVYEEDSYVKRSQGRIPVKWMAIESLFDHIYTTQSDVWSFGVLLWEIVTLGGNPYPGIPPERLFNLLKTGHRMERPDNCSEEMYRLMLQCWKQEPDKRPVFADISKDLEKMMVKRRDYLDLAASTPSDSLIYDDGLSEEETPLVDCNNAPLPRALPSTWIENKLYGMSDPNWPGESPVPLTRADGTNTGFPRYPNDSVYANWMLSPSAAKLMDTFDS

off-target kinases [3] = target: off-target kinases (Homo sapiens, UniProt P11309); conditions: PIM1, ZLYTE, ATP Km app
Chain of off-target kinases (Homo sapiens, UniProt P11309) (P11309 whole entry): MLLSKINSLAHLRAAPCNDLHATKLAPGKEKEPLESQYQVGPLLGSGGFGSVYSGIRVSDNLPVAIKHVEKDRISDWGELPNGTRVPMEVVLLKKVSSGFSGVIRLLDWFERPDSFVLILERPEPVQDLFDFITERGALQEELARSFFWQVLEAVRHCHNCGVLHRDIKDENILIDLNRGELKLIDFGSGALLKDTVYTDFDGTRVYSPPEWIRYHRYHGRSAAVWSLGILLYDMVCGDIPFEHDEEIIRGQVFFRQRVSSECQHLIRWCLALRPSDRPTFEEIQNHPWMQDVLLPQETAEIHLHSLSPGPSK

off-target kinases [4] = target: off-target kinases (Homo sapiens, UniProt P43250); conditions: GRK6, ZLYTE, ATP Km app
Chain of off-target kinases (Homo sapiens, UniProt P43250) (P43250 whole entry): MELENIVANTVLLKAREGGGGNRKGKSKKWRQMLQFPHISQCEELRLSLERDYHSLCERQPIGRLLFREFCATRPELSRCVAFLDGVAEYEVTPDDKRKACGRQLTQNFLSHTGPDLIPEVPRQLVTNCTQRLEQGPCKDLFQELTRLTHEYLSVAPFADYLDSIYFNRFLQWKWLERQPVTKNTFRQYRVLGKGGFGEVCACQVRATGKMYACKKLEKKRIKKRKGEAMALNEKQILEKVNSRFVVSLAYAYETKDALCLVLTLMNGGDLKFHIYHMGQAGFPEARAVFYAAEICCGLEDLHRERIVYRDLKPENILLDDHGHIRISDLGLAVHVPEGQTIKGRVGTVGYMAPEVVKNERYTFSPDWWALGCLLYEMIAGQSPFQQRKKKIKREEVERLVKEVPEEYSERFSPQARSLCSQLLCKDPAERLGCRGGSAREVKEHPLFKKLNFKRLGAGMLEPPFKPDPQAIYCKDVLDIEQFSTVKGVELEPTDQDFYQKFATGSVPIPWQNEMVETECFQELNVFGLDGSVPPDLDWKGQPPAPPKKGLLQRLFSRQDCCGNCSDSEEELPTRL

off-target kinases [5] = target: off-target kinases (Homo sapiens, UniProt P43405); conditions: SYK, 1000 μM, ATP Km app, ZLYTE
off-target kinases [6] = target: off-target kinases (Homo sapiens, UniProt Q02763, R849W); conditions: TEK (TIE2) R849W, mutant y, LanthaScreen Binding
Chain of off-target kinases (Homo sapiens, UniProt Q02763, R849W) (Q02763 23-1124 R849W): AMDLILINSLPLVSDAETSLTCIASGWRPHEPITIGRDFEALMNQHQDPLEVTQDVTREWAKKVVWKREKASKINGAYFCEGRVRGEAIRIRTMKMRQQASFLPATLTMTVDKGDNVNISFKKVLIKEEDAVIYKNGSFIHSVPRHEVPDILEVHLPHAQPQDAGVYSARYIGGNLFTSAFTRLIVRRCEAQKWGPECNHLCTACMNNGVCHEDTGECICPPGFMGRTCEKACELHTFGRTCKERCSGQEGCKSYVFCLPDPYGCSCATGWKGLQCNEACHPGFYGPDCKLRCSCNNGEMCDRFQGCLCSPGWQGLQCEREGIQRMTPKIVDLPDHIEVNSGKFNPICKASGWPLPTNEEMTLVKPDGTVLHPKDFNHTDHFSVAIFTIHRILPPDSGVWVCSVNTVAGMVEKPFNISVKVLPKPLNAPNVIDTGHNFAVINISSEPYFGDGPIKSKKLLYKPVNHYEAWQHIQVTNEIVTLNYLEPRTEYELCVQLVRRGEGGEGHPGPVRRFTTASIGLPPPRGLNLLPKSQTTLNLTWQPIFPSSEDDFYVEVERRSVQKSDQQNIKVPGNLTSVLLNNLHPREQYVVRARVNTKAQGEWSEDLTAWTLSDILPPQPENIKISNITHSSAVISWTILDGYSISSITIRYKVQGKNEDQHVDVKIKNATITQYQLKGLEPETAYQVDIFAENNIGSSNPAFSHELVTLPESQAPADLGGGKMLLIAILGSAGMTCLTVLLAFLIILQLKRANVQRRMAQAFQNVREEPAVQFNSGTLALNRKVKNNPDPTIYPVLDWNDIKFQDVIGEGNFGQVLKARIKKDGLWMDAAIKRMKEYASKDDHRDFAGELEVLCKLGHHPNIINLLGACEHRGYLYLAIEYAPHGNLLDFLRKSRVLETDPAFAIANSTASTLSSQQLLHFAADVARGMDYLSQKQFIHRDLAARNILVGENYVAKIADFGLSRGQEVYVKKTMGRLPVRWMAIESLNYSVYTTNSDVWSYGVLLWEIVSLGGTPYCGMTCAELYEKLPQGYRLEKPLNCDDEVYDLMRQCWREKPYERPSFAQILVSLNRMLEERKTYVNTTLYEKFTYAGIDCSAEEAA

off-target kinases [7] = target: T1, off-target kinases (Homo sapiens, UniProt Q13873); conditions: BMPR2, LanthaScreen Binding
T1 sequence (Q13873 27-1038): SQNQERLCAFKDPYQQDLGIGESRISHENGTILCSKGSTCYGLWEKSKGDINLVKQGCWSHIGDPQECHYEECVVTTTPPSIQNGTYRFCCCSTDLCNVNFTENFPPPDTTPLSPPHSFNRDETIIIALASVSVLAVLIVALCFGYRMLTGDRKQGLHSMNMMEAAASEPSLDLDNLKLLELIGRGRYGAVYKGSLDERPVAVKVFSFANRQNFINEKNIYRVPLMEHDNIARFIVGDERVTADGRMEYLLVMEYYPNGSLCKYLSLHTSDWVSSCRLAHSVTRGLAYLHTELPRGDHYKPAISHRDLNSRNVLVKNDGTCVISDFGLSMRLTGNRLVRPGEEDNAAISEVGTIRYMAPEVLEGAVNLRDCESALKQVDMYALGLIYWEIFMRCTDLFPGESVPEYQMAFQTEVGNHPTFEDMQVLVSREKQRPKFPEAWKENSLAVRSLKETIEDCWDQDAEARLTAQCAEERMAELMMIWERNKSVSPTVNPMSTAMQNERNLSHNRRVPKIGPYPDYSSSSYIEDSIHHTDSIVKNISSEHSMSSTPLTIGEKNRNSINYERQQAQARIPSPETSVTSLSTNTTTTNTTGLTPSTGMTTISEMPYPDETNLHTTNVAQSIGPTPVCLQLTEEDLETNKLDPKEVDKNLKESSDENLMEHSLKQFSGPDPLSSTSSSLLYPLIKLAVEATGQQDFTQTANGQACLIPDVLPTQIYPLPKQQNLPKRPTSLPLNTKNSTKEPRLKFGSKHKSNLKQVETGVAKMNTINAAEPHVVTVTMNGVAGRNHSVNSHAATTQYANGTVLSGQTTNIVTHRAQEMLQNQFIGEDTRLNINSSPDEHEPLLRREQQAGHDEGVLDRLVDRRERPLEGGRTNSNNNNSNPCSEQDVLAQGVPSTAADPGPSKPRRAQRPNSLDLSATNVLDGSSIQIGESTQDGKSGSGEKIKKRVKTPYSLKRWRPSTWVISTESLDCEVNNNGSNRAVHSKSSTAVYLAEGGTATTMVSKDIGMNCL

off-target kinases [8] = target: off-target kinases (Homo sapiens, UniProt Q15375); conditions: EPHA7, LanthaScreen Binding
Chain of off-target kinases (Homo sapiens, UniProt Q15375) (Q15375 28-998): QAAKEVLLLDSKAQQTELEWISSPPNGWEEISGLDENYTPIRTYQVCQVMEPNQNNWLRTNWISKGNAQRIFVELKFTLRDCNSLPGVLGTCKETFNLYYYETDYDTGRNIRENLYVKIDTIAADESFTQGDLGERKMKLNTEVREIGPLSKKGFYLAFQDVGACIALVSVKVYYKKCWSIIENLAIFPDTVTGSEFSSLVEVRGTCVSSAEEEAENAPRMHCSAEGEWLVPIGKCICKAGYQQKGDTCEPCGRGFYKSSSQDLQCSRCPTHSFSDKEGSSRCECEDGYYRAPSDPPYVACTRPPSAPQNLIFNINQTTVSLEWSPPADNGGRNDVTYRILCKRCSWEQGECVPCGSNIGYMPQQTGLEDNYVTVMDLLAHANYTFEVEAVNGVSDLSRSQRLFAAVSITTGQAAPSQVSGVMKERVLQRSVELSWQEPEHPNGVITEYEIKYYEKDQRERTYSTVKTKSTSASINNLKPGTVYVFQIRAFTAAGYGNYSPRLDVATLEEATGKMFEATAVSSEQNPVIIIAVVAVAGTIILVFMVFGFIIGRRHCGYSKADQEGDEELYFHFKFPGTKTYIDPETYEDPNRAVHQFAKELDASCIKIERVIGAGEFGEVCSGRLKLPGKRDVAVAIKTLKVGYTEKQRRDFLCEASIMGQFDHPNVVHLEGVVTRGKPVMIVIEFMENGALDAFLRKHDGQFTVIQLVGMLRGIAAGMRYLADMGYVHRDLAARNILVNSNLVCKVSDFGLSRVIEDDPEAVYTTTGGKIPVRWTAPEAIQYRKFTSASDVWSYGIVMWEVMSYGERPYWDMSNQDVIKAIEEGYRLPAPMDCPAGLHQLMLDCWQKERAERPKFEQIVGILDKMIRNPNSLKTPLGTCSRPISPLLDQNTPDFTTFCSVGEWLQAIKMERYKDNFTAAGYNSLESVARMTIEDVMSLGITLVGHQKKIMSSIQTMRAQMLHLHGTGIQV

In the case of `N#Cc1cc(-c2ncnc(Nc3ccc(N4CCN(C5COC5)CC4)cc3)n2)ccc1OC1CCOCC1` [Compound 1, 5-(4-((4-(4-(oxetan-3-yl)piperazin-1-yl)phenyl)amino)-1,3,5-triazin-2-yl)-2-((tetrahydro-2H-pyran-4-yl)oxy)benzonitrile], the inhibition (off-target kinases [1]; read-out: % Inhibition 1) is reported as 55%, the inhibition (off-target kinases [1]; read-out: % Inhibition 2) is reported as 51% and the inhibition (off-target kinases [1]; read-out: % Inhibition Avg) is reported as 53%. It also gave an inhibition (off-target kinases [2]; read-out: % Inhibition 1) of 46%, an inhibition (off-target kinases [2]; read-out: % Inhibition 2) of 42% and an inhibition (off-target kinases [2]; read-out: % Inhibition Avg) of 44%. For the same compound, the inhibition (off-target kinases [3]; read-out: % Inhibition 1) was 11%, the inhibition (off-target kinases [3]; read-out: % Inhibition 2) was 3% and the inhibition (off-target kinases [3]; read-out: % Inhibition Avg) was 7%. It also gave an inhibition (off-target kinases [4]; read-out: % Inhibition 1) of 2%, an inhibition (off-target kinases [4]; read-out: % Inhibition 2) of 2% and an inhibition (off-target kinases [4]; read-out: % Inhibition Avg) of 2%. The inhibition at 1000 µM (off-target kinases [5]; read-out: % Inhibition 1) was 44%, the inhibition at 1000 µM (off-target kinases [5]; read-out: % Inhibition 2) was 49% and the inhibition at 1000 µM (off-target kinases [5]; read-out: % Inhibition Avg) was 46%. It also gave an inhibition (off-target kinases [6]; read-out: % Inhibition 1) of 40%, an inhibition (off-target kinases [6]; read-out: % Inhibition 2) of 41% and an inhibition (off-target kinases [6]; read-out: % Inhibition Avg) of 41%. The inhibition (off-target kinases [7]; read-out: % Inhibition 1) was 50%, the inhibition (off-target kinases [7]; read-out: % Inhibition 2) was 47% and the inhibition (off-target kinases [7]; read-out: % Inhibition Avg) was 49%. For the same compound, the inhibition (off-target kinases [8]; read-out: % Inhibition 1) was 10%, the inhibition (off-target kinases [8]; read-out: % Inhibition 2) was 12% and the inhibition (off-target kinases [8]; read-out: % Inhibition Avg) was 11%.
